Experimental data published in PubChem BioAssay AID652177 (Vanderbilt Specialized Chemistry Center, 2013).

Target: High affinity choline transporter 1 (Homo sapiens) (UniProt Q9GZV3)
Assay: CHT choline uptake inhibitors, dose response, cell-based, HEK-293 hCHT, [3H]-choline uptake (AID 652177)
Conditions: 15 min, IC50 at 10 uM choline

High affinity choline transporter 1 (Homo sapiens), sequence (Q9GZV3 whole entry, looked up): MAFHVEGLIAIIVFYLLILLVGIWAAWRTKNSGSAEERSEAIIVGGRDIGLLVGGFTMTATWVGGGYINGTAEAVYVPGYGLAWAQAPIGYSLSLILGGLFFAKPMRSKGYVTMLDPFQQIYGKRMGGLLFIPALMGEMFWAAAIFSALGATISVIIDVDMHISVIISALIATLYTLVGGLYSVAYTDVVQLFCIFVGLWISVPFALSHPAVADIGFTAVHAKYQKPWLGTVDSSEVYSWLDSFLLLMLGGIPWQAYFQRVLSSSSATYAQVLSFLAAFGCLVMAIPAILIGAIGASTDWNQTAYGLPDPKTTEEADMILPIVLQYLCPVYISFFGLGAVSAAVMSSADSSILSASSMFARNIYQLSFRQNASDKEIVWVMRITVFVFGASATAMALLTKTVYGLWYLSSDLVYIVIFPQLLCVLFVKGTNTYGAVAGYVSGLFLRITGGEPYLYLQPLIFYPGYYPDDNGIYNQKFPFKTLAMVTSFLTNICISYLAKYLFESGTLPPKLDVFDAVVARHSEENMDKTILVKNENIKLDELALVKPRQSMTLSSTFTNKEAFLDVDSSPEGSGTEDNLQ

An IC50 of 2210 nM was found for `CCc1cc(CNC(=O)c2ccc(OC)c(OCCN3CCCCC3)c2)on1` in this work.
